Measured values from ChEMBL document CHEMBL4177703, “The discovery and optimization of naphthalene-linked P2-P4 Macrocycles as inhibitors of HCV NS3 protease” (Bioorg Med Chem Lett, 2018).

Key:
[1] = Half life in human liver microsomes in presence of NADPH; format: ADME, microsome
[2] = Cardiotoxicity in Langendorff perfused rabbit heart assessed as change in coronary flow at 10 uM measured over 10 mins by electrocardiography (reference value: 0%); format: toxicity, tissue-based, Oryctolagus cuniculus
[3] = Cardiotoxicity in Langendorff perfused rabbit heart assessed as change in QRS interval at 10 uM measured over 10 mins by electrocardiography (reference value: 0%); format: toxicity, tissue-based, Oryctolagus cuniculus
[4] = Cardiotoxicity in Langendorff perfused rabbit heart assessed as change in coronary flow at 10 uM measured over 30 mins by electrocardiography (reference value: 0%); format: toxicity, tissue-based, Oryctolagus cuniculus; conditions: 0.5 h
[5] = AUC in Sprague-Dawley rat at 5 mg/kg, iv after 24 hrs; format: ADME, organism-based; parameters: dose 5 mg/kg, time < 24 hr, route intravenous; conditions: in vivo
[6] = Half life in Sprague-Dawley rat at 5 mg/kg, iv after 24 hrs; format: ADME, organism-based; conditions: in vivo
[7] = Cardiotoxicity in Langendorff perfused rabbit heart assessed as change in heart rate at 10 uM measured over 20 mins by electrocardiography (reference value: 0%); format: toxicity, tissue-based, Oryctolagus cuniculus
[8] = Cardiotoxicity in Langendorff perfused rabbit heart assessed as change in QRS interval at 10 uM measured over 20 mins by electrocardiography (reference value: 0%); format: toxicity, tissue-based, Oryctolagus cuniculus
[9] = Cardiotoxicity in Langendorff perfused rabbit heart assessed as change in heart rate at 10 uM measured over 30 mins by electrocardiography (reference value: 0%); format: toxicity, tissue-based, Oryctolagus cuniculus; conditions: 0.5 h
[10] = Half life in Sprague-Dawley rat at 15 mg/kg, po after 24 hrs; format: ADME, organism-based; conditions: in vivo
[11] = Cardiotoxicity in Langendorff perfused rabbit heart assessed as change in PR interval at 10 uM measured over 20 mins by electrocardiography (reference value: 0%); format: toxicity, tissue-based, Oryctolagus cuniculus
[12] = Cardiotoxicity in Langendorff perfused rabbit heart assessed as change in QRS interval at 10 uM measured over 30 mins by electrocardiography (reference value: 0%); format: toxicity, tissue-based, Oryctolagus cuniculus; conditions: 0.5 h
[13] = Clearance in Sprague-Dawley rat at 5 mg/kg, iv after 24 hrs; format: ADME, organism-based; conditions: in vivo
[14] = Cardiotoxicity in Langendorff perfused rabbit heart assessed as change in PR interval at 10 uM measured over 10 mins by electrocardiography (reference value: 0%); format: toxicity, tissue-based, Oryctolagus cuniculus
[15] = Cardiotoxicity in Langendorff perfused rabbit heart assessed as change in sinus node recovery time at 10 uM measured over 10 mins by electrocardiography (reference value: 0%); format: toxicity, tissue-based, Oryctolagus cuniculus
[16] = Cardiotoxicity in Langendorff perfused rabbit heart assessed as change in PR interval at 10 uM measured over 30 mins by electrocardiography (reference value: 0%); format: toxicity, tissue-based, Oryctolagus cuniculus; conditions: 0.5 h
[17] = Cardiotoxicity in Langendorff perfused rabbit heart assessed as change in coronary flow at 10 uM measured over 20 mins by electrocardiography (reference value: 0%); format: toxicity, tissue-based, Oryctolagus cuniculus
[18] = Cardiotoxicity in Langendorff perfused rabbit heart assessed as change in QT interval at 10 uM measured over 30 mins by electrocardiography (reference value: 0%); format: toxicity, tissue-based, Oryctolagus cuniculus; conditions: 0.5 h
[19] = Cardiotoxicity in Langendorff perfused rabbit heart assessed as change in sinus node recovery time at 10 uM measured over 30 mins by electrocardiography (reference value: 0%); format: toxicity, tissue-based, Oryctolagus cuniculus; conditions: 0.5 h
[20] = Cardiotoxicity in Langendorff perfused rabbit heart assessed as change in QT interval at 10 uM measured over 20 mins by electrocardiography (reference value: 0%); format: toxicity, tissue-based, Oryctolagus cuniculus
[21] = Cardiotoxicity in Langendorff perfused rabbit heart assessed as change in heart rate at 10 uM measured over 10 mins by electrocardiography (reference value: 0%); format: toxicity, tissue-based, Oryctolagus cuniculus
[22] = Oral bioavailability in Sprague-Dawley rat at 15 mg/kg after 24 hrs; format: ADME, organism-based; conditions: in vivo
[23] = Cardiotoxicity in Langendorff perfused rabbit heart assessed as change in sinus node recovery time at 10 uM measured over 20 mins by electrocardiography (reference value: 0%); format: toxicity, tissue-based, Oryctolagus cuniculus
[24] = Cardiotoxicity in Langendorff perfused rabbit heart assessed as change in QT interval at 10 uM measured over 10 mins by electrocardiography (reference value: 0%); format: toxicity, tissue-based, Oryctolagus cuniculus
[25] = AUC in Sprague-Dawley rat at 15 mg/kg, po after 24 hrs; format: ADME, organism-based; parameters: time < 24 hr, dose 15 mg/kg, route oral; conditions: in vivo
[26] = Clearance in rat at 5 mg/kg, iv or 15 mg/kg, po; format: ADME, organism-based; conditions: in vivo
[27] = Oral bioavailability in rat at 15 mg/kg; format: ADME, organism-based; conditions: in vivo
[28] = Drug concentration in Sprague-Dawley rat liver at 5 mg/kg, iv after 24 hrs; format: ADME, organism-based; conditions: read-out: Drug uptake
[29] = Drug concentration in Sprague-Dawley rat liver at 15 mg/kg, po after 24 hrs; format: ADME, organism-based; conditions: read-out: Drug uptake
[30] = AUC in Sprague-Dawley rat at 15 mg/kg, po after 6 hrs; format: ADME, organism-based; parameters: dose 15 mg/kg, time < 6 hr, route oral; conditions: in vivo
[31] = Drug concentration in Sprague-Dawley rat liver at 15 mg/kg, po after 6 hrs; format: ADME, organism-based; conditions: read-out: Drug uptake
[32] = AUC in Sprague-Dawley rat at 5 mg/kg, iv after 6 hrs; format: ADME, organism-based; parameters: time < 6 hr, dose 5 mg/kg, route intravenous; conditions: in vivo
[33] = Clearance in Sprague-Dawley rat at 5 mg/kg, iv after 6 hrs; format: ADME, organism-based; conditions: in vivo
[34] = Drug concentration in Sprague-Dawley rat liver at 5 mg/kg, iv after 6 hrs; format: ADME, organism-based; conditions: read-out: Drug uptake

SMILES: COC(=O)N1CCCOc2cc3cc(ccc3cc2OC)[C@]2(OC)C[C@@H](C(=O)N[C@]3(C(=O)NS(=O)(=O)C4CC4)C[C@H]3C3CC3)N(C2)C(=O)[C@H](C(C)(C)C)NC(=O)OCC1
- half-life [1]: > 2 h

SMILES: C=C[C@@H]1C[C@]1(NC(=O)[C@@H]1C[C@@](OC)(c2ccc3cc(OC)ccc3c2)CN1C(=O)[C@@H](NC(=O)OC(C)(C)C)C(C)(C)C)C(=O)NS(=O)(=O)C1CC1
- half-life [1]: 0.35 h

SMILES: C=Cc1cc2cc([C@]3(OC)C[C@@H](C(=O)N[C@]4(C(=O)NS(=O)(=O)C5CC5)C[C@H]4C=C)N(C(=O)[C@@H](NC(=O)OC(C)(C)C)C(C)(C)C)C3)ccc2cc1OC
- half-life [1]: 0.6 h

SMILES: COc1cc2ccc3cc2cc1CCCCCCOC(=O)N[C@@H](C(C)(C)C)C(=O)N1C[C@@]3(OC)C[C@H]1C(=O)N[C@]1(C(=O)NS(=O)(=O)C2CC2)C[C@H]1C1CC1
- Activity [2]: 18%
- Activity [3]: 10%
- Activity [4]: 19%
- AUC at 24 h [5]: 57 µM·h
- half-life [6]: 9.5 h
- Activity [7]: -5%
- Activity [8]: 32%
- Activity [9]: -13%
- half-life [10]: 5.3 h
- Activity [11]: 9%
- Activity [12]: 43%
- clearance [13]: 2 mL/min/kg
- Activity [14]: 2%
- Activity [15]: 4%
- Activity [16]: 18%
- Activity [17]: 21%
- Activity [18]: 7%
- Activity [19]: 19%
- Activity [20]: 10%
- half-life [1]: 1.65 h
- Activity [21]: -2%
- bioavailability [22]: 34%
- Activity [23]: 6%
- Activity [24]: 7%
- AUC at 24 h [25]: 59 µM·h

SMILES: C=C[C@@H]1C[C@]1(NC(=O)[C@@H]1C[C@@H](Oc2ncc(OC)c3ccc(Cl)cc23)CN1C(=O)[C@@H](NC(=O)OC(C)(C)C)C(C)(C)C)C(=O)NS(=O)(=O)C1CC1
- clearance [26]: 38 mL/min/kg
- bioavailability [27]: 12%

SMILES: CO[C@@]12C[C@@H](C(=O)N[C@]3(C(=O)NS(=O)(=O)C4CC4)C[C@H]3C3CC3)N(C1)C(=O)[C@H](C(C)(C)C)NC(=O)OCCCCCOc1ccc3ccc2cc3c1
- AUC at 24 h [5]: 7.2 µM·h
- concentration at 24 h [28]: 45 µM
- half-life [6]: 4.6 h
- half-life [10]: 4.2 h
- clearance [13]: 19 mL/min/kg
- concentration at 24 h [29]: 31 µM
- half-life [1]: 0.65 h
- bioavailability [22]: 16%
- AUC at 24 h [25]: 3.6 µM·h

SMILES: C=C[C@@H]1C[C@]1(NC(=O)[C@@H]1C[C@]2(OC)CN1C(=O)[C@H](C(C)(C)C)NC(=O)OCCCCCCCCc1cc3cc2ccc3cc1OC)C(=O)NS(=O)(=O)C1CC1
- half-life [1]: 0.55 h

SMILES: COc1cc2ccc3cc2cc1CCCC(C)(C)CCOC(=O)N[C@@H](C(C)(C)C)C(=O)N1C[C@@]3(OC)C[C@H]1C(=O)N[C@]1(C(=O)NS(=O)(=O)C2CC2)C[C@H]1C1CC1
- Activity [2]: 43%
- Activity [3]: 17%
- Activity [4]: -10%
- AUC at 24 h [5]: 29 µM·h
- concentration at 24 h [28]: 100 µM
- half-life [6]: 9.6 h
- Activity [7]: -5%
- Activity [8]: 31%
- Activity [9]: -16%
- half-life [10]: 3.9 h
- Activity [11]: 0%
- Activity [12]: 31%
- clearance [13]: 3.5 mL/min/kg
- Activity [14]: 4%
- Activity [15]: 3%
- Activity [16]: 0%
- Activity [17]: 14%
- concentration at 24 h [29]: 85 µM
- Activity [18]: 0%
- Activity [20]: 0%
- half-life [1]: 1.27 h
- Activity [21]: 5%
- bioavailability [22]: 100%
- Activity [23]: 16%
- Activity [24]: -4%
- AUC at 24 h [25]: 87 µM·h

SMILES: C=C[C@@H]1C[C@]1(NC(=O)[C@@H]1C[C@]2(OC)CN1C(=O)[C@H](C(C)(C)C)NC(=O)OCCCCCOc1ccc3ccc2cc3c1)C(=O)NS(=O)(=O)C1CC1
- half-life [1]: 0.367 h

SMILES: C=C[C@@H]1C[C@]1(NC(=O)[C@@H]1C[C@]2(OC)CN1C(=O)[C@H](C(C)(C)C)NC(=O)OCC(C)(C)CCCCc1cc3cc2ccc3cc1OC)C(=O)NS(=O)(=O)C1CC1
- half-life [1]: 0.967 h

SMILES: C=C[C@@H]1C[C@]1(NC(=O)[C@@H]1C[C@]2(OC)CN1C(=O)[C@H](C(C)(C)C)NC(=O)OCCCCCCc1cc3cc2ccc3cc1OC)C(=O)NS(=O)(=O)C1CC1
- AUC at 6 h [30]: 27 µM·h
- concentration at 6 h [31]: 108 µM
- AUC at 6 h [32]: 90 µM·h
- half-life [1]: 0.417 h
- clearance [33]: 1.2 mL/min/kg
- concentration at 6 h [34]: 95 µM

SMILES: COc1cc2ccc3cc2cc1CCCCC(C)(C)COC(=O)N[C@@H](C(C)(C)C)C(=O)N1C[C@@]3(OC)C[C@H]1C(=O)N[C@]1(C(=O)NS(=O)(=O)C2CC2)C[C@H]1C1CC1
- half-life [1]: 1.38 h

SMILES: COc1cc2ccc3cc2cc1OCCCN(C1CC1)CCOC(=O)N[C@@H](C(C)(C)C)C(=O)N1C[C@@]3(OC)C[C@H]1C(=O)N[C@]1(C(=O)NS(=O)(=O)C2CC2)C[C@H]1C1CC1
- AUC at 24 h [5]: 33 µM·h
- half-life [6]: 20 h
- half-life [10]: 8 h
- clearance [13]: 3.5 mL/min/kg
- half-life [1]: 0.717 h
- bioavailability [22]: 18%
- AUC at 24 h [25]: 18 µM·h
